The values that follow come from PubChem BioAssay AID1259407 (Chemical Carcinogenesis Research Information System (CCRIS), 2018).

Calls of active or inactive are those of the source. How the calls were made is not given here.

The data set concerns CCRIS mutagenicity, Ames/micronucleus/aberration tests. As to the kind of experiment: CCRIS mutagenicity studies.
[1] abbreviates: Test System: AMES SALMONELLA TYPHIMURIUM, Strain/Indicator: TA100, Metabolic Activation: NONE, Method: STANDARD PLATE.
Where [2] appears, read: Test System: AMES SALMONELLA TYPHIMURIUM, Strain/Indicator: TA100, Metabolic Activation: RAT, LIVER, S-9, AROCLOR 1254, Method: STANDARD PLATE.
Setting [3] is: Test System: AMES SALMONELLA TYPHIMURIUM, Strain/Indicator: TA98, Metabolic Activation: RAT, LIVER, S-9, AROCLOR 1254, Method: STANDARD PLATE.

With `O=[N+]([O-])c1ccc(-c2ccccc2)cc1`, the mutagenic call (Test System: AMES SALMONELLA TYPHIMURIUM, Strain/Indicator: TA98(1,8-DNP6), Metabolic Activation: NONE) is “inactive; negative”; the mutagenic call (Test System: AMES SALMONELLA TYPHIMURIUM, Strain/Indicator: TA98(1,8-DNP6), Metabolic Activation: NONE, Method: STANDARD PLATE) was “active; positive”; the mutagenic call (Test System: AMES SALMONELLA TYPHIMURIUM, Strain/Indicator: TA98(1,8-DNP6), Metabolic Activation: RAT, LIVER, S-9, AROCLOR 1254) is “inactive; negative”; the mutagenic call (Test System: AMES SALMONELLA TYPHIMURIUM, Strain/Indicator: TA98(NR), Metabolic Activation: NONE) is “inactive; negative”; the mutagenic call (Test System: AMES SALMONELLA TYPHIMURIUM, Strain/Indicator: TA98(NR), Metabolic Activation: NONE, Method: STANDARD PLATE) was “inactive; negative”; the mutagenic call (Test System: AMES SALMONELLA TYPHIMURIUM, Strain/Indicator: TA98(NR), Metabolic Activation: RAT, LIVER, S-9, AROCLOR 1254) is “inactive; negative”. Also, the mutagenic call (Test System: AMES SALMONELLA TYPHIMURIUM, Strain/Indicator: TA98, Metabolic Activation: NONE) was “inactive; negative”; the mutagenic call (Test System: AMES SALMONELLA TYPHIMURIUM, Strain/Indicator: TA98, Metabolic Activation: NONE, Method: PREINCUBATION) was “active; positive”; the mutagenic call (Test System: AMES SALMONELLA TYPHIMURIUM, Strain/Indicator: TA98, Metabolic Activation: RAT, LIVER, S-9, AROCLOR 1254) was “inactive; negative”; the mutagenic call (Test System: AMES SALMONELLA TYPHIMURIUM, Strain/Indicator: TA98, Metabolic Activation: RAT, LIVER, S-9, PCB (10%), Method: PREINCUBATION) was “active; positive”; the mutagenic call (Test System: AMES SALMONELLA TYPHIMURIUM, Strain/Indicator: TA98, Metabolic Activation: RAT, LIVER, S-9, PCB, Method: PREINCUBATION) is “active; positive”; the mutagenic call (Test System: AMES SALMONELLA TYPHIMURIUM, Strain/Indicator: TA98, Metabolic Activation: RAT, LIVER, S-100 (CYTOSOL), Method: PREINCUBATION) was “active; positive”. Further, the mutagenic call is, setting by setting: (Test System: AMES SALMONELLA TYPHIMURIUM, Strain/Indicator: TA98, Metabolic Activation: RAT, LIVER, S-100 (MICROSOMES), Method: PREINCUBATION) “active; positive”; (Test System: AMES SALMONELLA TYPHIMURIUM, Strain/Indicator: TA98, Metabolic Activation: S-9, Method: STANDARD PLATE) “active; positive”; (Test System: AMES SALMONELLA TYPHIMURIUM, Strain/Indicator: TA100(NR), Metabolic Activation: NONE) “inactive; negative”; (Test System: AMES SALMONELLA TYPHIMURIUM, Strain/Indicator: TA100(NR), Metabolic Activation: RAT, LIVER, S-9, AROCLOR 1254) “inactive; negative”; (Test System: AMES SALMONELLA TYPHIMURIUM, Strain/Indicator: TA100, Metabolic Activation: NONE) “inactive; negative”; under setting [1], “active; positive”. Moreover, the mutagenic call reads like this: (Test System: AMES SALMONELLA TYPHIMURIUM, Strain/Indicator: TA100, Metabolic Activation: RAT, LIVER, S-9, AROCLOR 1254) “inactive; negative”; (Test System: AMES SALMONELLA TYPHIMURIUM, Strain/Indicator: TA100, Metabolic Activation: S-9, Method: STANDARD PLATE) “active; positive”; (Test System: AMES SALMONELLA TYPHIMURIUM, Strain/Indicator: TA104, Metabolic Activation: NONE) “inactive; negative”; (Test System: AMES SALMONELLA TYPHIMURIUM, Strain/Indicator: TA104, Metabolic Activation: RAT, LIVER, S-9, AROCLOR 1254) “inactive; negative”; (Test System: CHINESE HAMSTER OVARY, Strain/Indicator: CHO-K1-BH4 (HGPRT), Metabolic Activation: NONE, Method: SUSPENSION/PLATE) “inactive; negative”; (Test System: CHINESE HAMSTER OVARY, Strain/Indicator: CHO-K1-BH4 (HGPRT), Metabolic Activation: RAT, LIVER, S-9, AROCLOR, Method: SUSPENSION/PLATE) “inactive; negative”. In addition, the mutagenic call (Test System: UDS RAT HEPATOCYTES, Strain/Indicator: THY INCORP, Metabolic Activation: NONE, Method: AUTORADIOGRAPHY (SERUM-FREE MEDIA)) is “active; positive”.

Consider `Fc1cccc2cc3c(cc12)-c1cccc2cccc-3c12`, for which the mutagenic call under setting [2] is “active; positive”.

`O=[N+]([O-])c1c2c(c3ccc4cccc5ccc1c3c45)C=CCC2`: the mutagenic call is “inactive; negative” (Test System: AMES SALMONELLA TYPHIMURIUM, Strain/Indicator: TA98, Metabolic Activation: NONE, Method: STANDARD PLATE); “inactive; negative” under setting [3]; “inactive; negative” under setting [1]; “inactive; negative” under setting [2].

With `ClCc1c2ccccc2c(CCl)c2ccccc12`, the mutagenic call (Test System: AMES SALMONELLA TYPHIMURIUM, Strain/Indicator: TA1537, Metabolic Activation: NONE, Method: STANDARD PLATE) was “active; positive”.

For the compound `Cc1cc(=O)oc2ccc3c(c12)C1(C)OOC1(C)O3` (stereo not given), the mutagenic call (Test System: AMES SALMONELLA TYPHIMURIUM, Strain/Indicator: TA100, Metabolic Activation: NONE, Method: PREINCUBATION) is “active; positive”.

For the compound `C[C@H](CCN=[N+]=[N-])c1ccccc1`, under “Test System: AMES SALMONELLA TYPHIMURIUM, Strain/Indicator: TA100, Metabolic Activation: RAT, LIVER, S-9, PCB, Method: PREINCUBATION”, the mutagenic call was “active; positive”.

In the case of `Cn1ccc2c3c(ccc4ccc(O)cc43)ccc21`, the mutagenic call was “inactive; negative” under setting [3] and “active; positive” (Test System: AMES SALMONELLA TYPHIMURIUM, Strain/Indicator: TA98, Metabolic Activation: RAT, LIVER, S-9, AROCLOR, Method: STANDARD PLATE).
